Assay results as given in a melting point compilation (Tetko et al.; mined from patent text by program, amines drawn as free bases though some values may be those of a salt).

SMILES	melting point [°C]
CN1C(=O)Cc2cc(F)ccc21	128 to 130
COc1ccc(NC2(C#N)CCCCC2)cn1	121 to 123
S=C(NCCCCN(Cc1ccc(Cl)c(Cl)c1)c1ccccn1)NCCCn1ccnc1	112 to 114
CN(C(N)=O)c1cc(C(C)(C)C)on1	134 to 135
O=S(=O)(CCCl)C1=NN(S(=O)(=O)CCCl)CS1	143
C=CCS(=O)(=O)CC=C	63 to 65
CC(=O)C1=C(C#N)C(c2cccc(C#N)c2Br)c2c[nH]nc2N1 (stereo not given)	> 230
O=CNC=Cc1cc(O)ccc1O	149 to 153
CC(C)(C)c1ccc2c(c1)OC(C(F)(F)C(F)(F)F)C(C(=O)O)=C2 (stereo not given)	171 to 174
NC(=O)CCN(CCC(N)=O)Cc1ccccc1	103 to 106
Cc1c(F)cc2c(=O)c(C(=O)O)cn(CCF)c2c1F	215 to 217
CCc1n[nH]c(CC)c1CCCCCCOc1ccc(Br)cc1	31 to 33
CCCNc1nc(=O)c(C)cn1C1CC(N=[N+]=[N-])C(CO)O1 (stereo not given)	146
CCCc1c(OCC(O)COc2cc(N)c(C)cc2Cl)ccc(C(C)=O)c1O (stereo not given)	94 to 95
C=C1C(=O)C2CCC1(C)C2(C)C (stereo not given)	69 to 75
OC[C@H]1CC[C@H](c2ccc(Cl)cc2)CC1	60 to 63
NNc1nc(Cl)nc2ccc(Cl)cc12	> 280

SMILES	melting point [°C]
O=C(NC1CCCCNC1=O)c1cccnc1 (stereo not given)	177 to 178
CCOCc1nc2c(N)nc(C)c(C)c2n1CCCN	127
C=CC(=O)Oc1ccc(NS(C)(=O)=O)cc1	136 to 140
CCCCNc1ncc(C(=O)c2ccc(Cl)c([N+](=O)[O-])c2)s1	192 to 194
CC1(C)C(Cl)C(=O)C1CC(Br)(Br)Br (stereo not given)	87 to 89
CCC1(C)SC(N(C)C(=O)NC)=NN1C(=O)C(C)(C)C (stereo not given)	124 to 127
CC1(C)COP(N(CCCCCCN(C2CC(C)(C)NC(C)(C)C2)P2OCC(C)(C)CO2)C2CC(C)(C)NC(C)(C)C2)OC1	103
O=C(O)C1Cc2ccsc2S1(=O)=O (stereo not given)	189 to 193
O=C1Nc2ccccc2Oc2cscc21	240 to 241
CN(c1ccccc1[N+](=O)[O-])S(=O)(=O)c1cccnc1Cl	180
Cc1cccc([N+](=O)[O-])c1C#N	101 to 103
COc1ccc2ccc(N)cc2c1	157
COc1ccc(Cn2c(Cl)nc3c(Cl)ncnc32)cc1	110 to 112
CC(CSC(C)C(=O)O)C(=O)O (stereo not given)	78 to 80
COC(=O)Nc1nc2ccccc2n1C(=O)NC(=O)C(Cl)=C(Cl)Cl	231
COc1ccc(CNc2nc(C#N)ncc2C(=O)c2cc(OC)c(OC)c(OC)c2)cc1Cl	140 to 143
O=[N+]([O-])N(c1ccccc1)c1ccccc1	118

Other lines, results leading:

melting point [°C]	SMILES
128 to 131	CCOC(=O)Cc1sc(Sc2cc(C(=O)OC)c3ccccc3n2)nc1C
75 to 76	Fc1cc(Br)c2ccccc2c1Cl
223 to 224	COc1ccc(-c2nnc(Nc3ccc(Cl)c(Cl)c3)s2)cc1OCc1ccccc1
79 to 81	CCC(=O)c1cc2ccccc2s1
88 to 90	O=C(CCc1ccc(O)c(Cl)c1)C1CCCC1
185 to 186	Cn1cc(-c2cccc(C(F)(F)F)c2)c(=O)c(-c2cccs2)c1
83 to 103	COC(=O)Cc1ccc(OCC(C)NCC(O)c2cccc(Cl)c2)c(Cl)c1 (stereo not given)
129 to 131	NC(=O)c1cccc(OCc2cccc(Br)c2)c1
170 to 172	O=C(O)c1ccccc1SCc1nccc2ccccc12
74 to 76	CN1Cn2cc(CO)cc2-c2ccccc21
140 to 145	CN1C(=O)CC[C@]2(C)c3ccc(Sc4nc5c(F)cccc5s4)cc3CC[C@@H]12
251 to 252	Cn1cc(-c2ccc3nc(NC(=O)c4ccc(C(C)(C)C)nc4)cn3n2)cn1
40 to 42	COc1cccc([C@H](C(C)C)N2CCC(c3noc4cc(F)ccc34)CC2)c1
224 to 225	O=[N+]([O-])c1ccc(NN=C(c2ccccc2)c2ccc(O)cc2)c([N+](=O)[O-])c1
74 to 75	CC(=O)OCc1c(Br)cccc1N1CCc2c(sc3c2CCCC3)C1=O
195 to 200	O=C1c2cc3ccccc3cc2C(=O)c2c(Oc3ccccc3)cccc21
62 to 65	Cc1ccccc1-c1ccc(Cl)cc1C#N
198	COc1ccc(C(=O)Nc2c(Cl)cncc2Cl)cc1SC1CCCC1
134 to 135	CCOCc1cc2cc(Br)ccc2oc1=Nc1ccc(OC)cc1
166 to 168	COc1ccc(S(N)(=O)=O)c(-c2cccc3c2Nc2ccc(F)cc2S3)c1
250	Oc1ccc(Oc2cnc3ccccc3c2)cc1

melting point [°C]	SMILES
152 to 153	CS(=O)(=O)c1ccc(-c2sc(COc3cccc(Cl)c3)nc2-c2ccccc2F)cc1
85	COC(=O)CNc1ccc(CNC(=O)C2Cc3ccccc3N2S(=O)(=O)c2ccc(-c3cccc(C(F)(F)F)c3)cc2)cc1 (stereo not given)
190 to 192	COc1ccc2cc(NC(C)=O)c3ccc(C)cc3c2c1OC
165	CC(CN1CCCC1)N1c2ccccc2Sc2ccc(C(=O)NCc3cccc(F)c3)cc21 (racemic)
182 to 185	Cc1ccc(-c2nc3ccc(Cl)nc3n2CC(=O)N(C)C)cc1
124	COc1ccc(C2=C(C#N)C(c3ccccc3Cl)c3c[nH]nc3N2)cc1 (stereo not given)
142 to 143	CCOC(=O)Cc1ccc(NC(=O)C(COS(C)(=O)=O)NS(=O)(=O)c2ccc(Cl)cc2)cc1 (racemic)
293 to 295	O=c1[nH]c2cc(Cl)ccc2c(O)c1-c1cccc(OCc2ccccc2)c1
166	CC(C)(C)OC(=O)CCc1cccc(-c2nc(=O)c3ccccc3s2)n1
173 to 174	O=C1C(=O)N2c3c(cc(Cl)cc31)CCC2c1ccccc1 (stereo not given)
172 to 174	Nc1n[nH]cc1C(=O)NC/C=C\COc1cc(CN2CCCCC2)ccn1
141 to 142	Cc1cc(OCC(F)(F)F)c(NC(=O)CN2CCN(CCSc3nc4ccccc4o3)CC2)c(OCC(F)(F)F)n1
149	CCCCn1ccc(N2CCC(c3ccccc3)CC2)c(Cl)c1=O
100 to 101	COc1ccc(-c2nc(CCOc3ccc(CN(O)C(N)=O)cc3)c(C)o2)cc1
89 to 91	CNC(=S)NS(=O)(=O)c1cc(CCNC(=O)c2cnc3ccccc3c2)ccc1OCCOc1ccccc1
127 to 131	CCNC(=O)N1C2=NC(C)(C)N(C)C(=O)N2c2ccccc21
191 to 192	N#CCCNC(=O)c1cccc(-c2cccc3c2CN(Cc2cccc(C(F)(F)F)c2)C3=O)c1
71 to 73	NC(=O)CNC(=O)c1cccc(-c2cc(F)cc3cc(Cc4cccc(C(F)(F)F)c4)sc23)c1
79.5 to 81.5	CC(C)(C)S(=O)(=O)CCOCCn1ccc2ncnc(Nc3ccc(Oc4cccc(C(F)(F)F)c4)c(Cl)c3)c21
> 220	c1coc(-c2ccnc3[nH]c4ccccc4c23)c1
